# Article PMC9605497, “Potential of Epidermal Growth Factor-like Peptide from the Sea Cucumber Stichopus horrens to Increase the Growth of Human Cells: In Silico Molecular Docking Approach” (Marine Drugs, 2022)
# Entries after “also recorded” stand apart in the source; their conditions may differ.
# Test system: EGF/PDGF pathway genes
# Experiment: qPCR array of EGF/PDGF pathway genes
# Type: cell-based, human
# Design: key to expression class: +: Maximum expression; −: Minimum expression; unc.: Unchanged
# Conditions: 10 nM, 4 h; for fold change: vs serum-free medium
# Protocol: Cells were seeded at 80,000 cells per well of 24-well plates in 400 µL of complete growth medium. Cells were grown in MEM basal medium supplemented with 10% FBS and 1% antibiotic–antimycotic in a humidified incubator at 37 °C, equilibrated with 5% CO2. After 24 h of culture, the medium was removed, washed once with PBS, replaced with serum-free medium and left to culture for another 16 h. Medium was removed and replaced with corresponding treatment medium each in triplicates; 10 nM and 50 nM of Sh-EGFl-1, 10 nM and 50 nM of rhEGF were used as a positive control and serum-free medium was used as a negative control. Cells were harvested after 4 h. Medium was removed and 200 μL of Trizol reagent (Thermo Scientific, Waltham, MA, USA) was immediately added.
# RNA extraction was performed according to Trizol reagent manufacturer’s protocol. An elution volume of 15 μL RNase-free water was added before the concentration and purity were determined using NanoDrop.
# A total of 100 ng RNA was used initially for the cDNA synthesis reaction. The reaction was carried out according to RT^2 First Strand Kit’s protocol (Qiagen, Venlo, Netherlands). Genomic DNA was removed according to the manufacturer’s protocol prior to cDNA strand generation.
# The 10 μL cDNA of human skin cells was diluted with 91 μL prior to qPCR reaction. Primer pairs of 84 genes involved in the EGF pathway, five housekeeping genes such as ribosomal protein large, P0 (RPL0), glyceraldehyde-3-phosphate-dehydrogenase (GAPDH), beta-actin (ACTB), beta-2-microglobulin (B2M) and hypoxanthine phosphoribosyltransferase 1 (HPRT1), one positive control gene for genomic DNA contamination, three reverse transcription control genes and three PCR-positive controls were included in the Qiagen PAHS-040ZA qPCR array plate (Qiagen, Venlo, Netherlands). A list of all genes analyzed in this study is available in Supplementary Materials Table S7. The mixture reaction was prepared according to the protocol and run using BioRad CFX96TM. Samples of 10 nM rhEGF and 10 nM Sh-EGFl-1 were prepared in duplicates. The following thermal profile was applied: 1 cycle at 95 °C for 10 min, 40 cycles at 95 °C for 15 s, 60 °C for 1 min, with the ramp rate from 95 °C to 60 °C was set at 1 °C every second. The data were then analyzed through Qiagen web portal. Data for serum-free medium were selected as a control group and the differences in gene expression between control and treatment groups were calculated using the 2^(−delta delta CT) method. The difference, known as fold change, was obtained from the delta delta CT values, which are the genes of interest and the average housekeeping genes, followed by the delta delta CT (delta CT (treatment group)—delta CT (control group)).
# [1] = IKBKB (IKK), PLC gamma signaling
# [2] = PLCG1 (PLC), PLC gamma signaling
# [3] = PPP2CA (TSC2), PLC gamma signaling
# [4] = RASA1 (p120GAP), MAPK signaling
# [5] = RPS6KA5 (p70S6K), MAPK signaling
# [6] = RPS6KA5 (p70S6K), PI3K signaling
# [7] = RPS6KA5 (p70S6K), PLC gamma signaling
# [8] = RPS6KB1 (p70S6K), MAPK signaling
# [9] = RPS6KB1 (p70S6K), PI3K signaling
# [10] = RPS6KB1 (p70S6K), PLC gamma signaling
substance,measurement,setting,value
"H-NINECFSSPCENQGICQDEIDGYNCVCQPGFTGTHCESSMLNHVI-OH (disulfide) [Sh-EGFl-1, 45 amino acid EGF-like peptide from Stichopus horrens contig 498513, synthesized by Fmoc solid-phase peptide chemistry]","gene expression of individual genes, in words",,"relatively high expression of MAPK8, MAPK9, MAP2K7, MKK, MAPK1, ELK1 and c-JUN; also recorded: high expression of Src, Ras, Kras and Raf; also recorded: IL-2 is minimally expressed; also recorded: increased expression of the adaptor proteins Shc, Sos and Grb2"
same,signaling pathways activated,qPCR array,"phosphoinositide 3-kinase (PI3K), mitogen-activated protein kinase (MAPK), phospholipase C gamma (PLC-gamma), Janus kinase-signal transducer and activator of transcription (JAK-STAT) and Ras homologous (Rho) pathways; also recorded: PI3K–AKT–GSK3, Ras–Raf–MEK–ERK–MAPK, PLC gamma, STAT and Rho signaling pathways"
same,"gene expression profile, EGF/PDGF pathway",qPCR array heat map,upregulation of most genes involved in EGF/PDGF pathways
same,expression class,"AKT1, PI3K signaling",+
same,fold change,"AKT1, PI3K signaling",(0.95)
same,expression class,"AKT3, PI3K signaling",+
same,fold change,"AKT3, PI3K signaling",(1.11)
same,expression class,"ATF1, MAPK signaling",+
same,expression class,"ATF2, MAPK signaling",+
same,fold change,"ATF2, MAPK signaling",(0.89)
same,expression class,"CASP3, MAPK signaling",+
same,fold change,"CASP3, MAPK signaling",(1.05)
same,expression class,"CASP9, MAPK signaling",+
same,fold change,"CASP9, MAPK signaling",(0.93)
same,expression class,"CBL, MAPK signaling",−
same,fold change,"CBL, MAPK signaling",(1.00)
same,expression class,"CCND1, PI3K signaling",−
same,fold change,"CCND1, PI3K signaling",(1.17)
same,expression class,"DUSP1, MAPK signaling",+
same,fold change,"DUSP1, MAPK signaling",(0.97)
same,expression class,"DUSP6, MAPK signaling",+
same,fold change,"DUSP6, MAPK signaling",(1.05)
same,expression class,"E1F4E, PI3K signaling",+
same,fold change,"E1F4E, PI3K signaling",(1.28)
same,expression class,"ELK1, JAK-STAT signaling",+
same,fold change,"ELK1, JAK-STAT signaling",(1.08)
same,expression class,"FOS, JAK-STAT signaling",+
same,fold change,"FOS, JAK-STAT signaling",(1.50)
same,expression class,"GAB1, PI3K signaling",+
same,fold change,"GAB1, PI3K signaling",(1.00)
same,expression class,"GRB2, PI3K signaling",+
same,fold change,"GRB2, PI3K signaling",(1.07)
same,expression class,"GSK3A, PI3K signaling",unc.
same,fold change,"GSK3A, PI3K signaling",(0.87)
same,expression class,"GSK3B, PI3K signaling",+
same,fold change,"GSK3B, PI3K signaling",(1.06)
same,expression class,"HRAS, MAPK signaling",+
same,fold change,"HRAS, MAPK signaling",(0.93)
same,expression class,"IKBKB (IKK), PI3K signaling",+
same,fold change,"IKBKB (IKK), PI3K signaling",(1.06)
same,expression class,[1],+
same,fold change,[1],(1.06)
same,expression class,"IKBKB, MAPK signaling",+
same,expression class,"JAK1, JAK-STAT signaling",+
same,fold change,"JAK1, JAK-STAT signaling",(1.02)
same,expression class,"JUN, JAK-STAT signaling",+
same,fold change,"JUN, JAK-STAT signaling",(1.32)
same,expression class,"MAP2K1 (MEK1), MAPK signaling",unc.
same,fold change,"MAP2K1 (MEK1), MAPK signaling",(0.91)
same,expression class,"MAP2K4 (MKK4), MAPK signaling",unc.
same,fold change,"MAP2K4 (MKK4), MAPK signaling",(0.84)
same,expression class,"MAP2K7 (MKK7), MAPK signaling",+
same,fold change,"MAP2K7 (MKK7), MAPK signaling",(1.0)
same,expression class,"MAP3K2 (MEKK2), MAPK signaling",+
same,fold change,"MAP3K2 (MEKK2), MAPK signaling",(1.27)
same,expression class,"MAPK1 (ERK2), MAPK signaling",+
same,fold change,"MAPK1 (ERK2), MAPK signaling",(1.03)
same,expression class,"MAPK3 (ERK1), MAPK signaling",+
same,fold change,"MAPK3 (ERK1), MAPK signaling",(0.98)
same,expression class,"MAPK8, MAPK signaling",+
same,fold change,"MAPK8, MAPK signaling",(0.99)
same,expression class,"MAPK9, MAPK signaling",unc.
same,fold change,"MAPK9, MAPK signaling",(0.80)
same,expression class,"MAPK10, MAPK signaling",−
same,fold change,"MAPK10, MAPK signaling",(0.55)
same,expression class,"MKNK1, MAPK signaling",−
same,fold change,"MKNK1, MAPK signaling",(0.82)
same,expression class,"NFATC3, MAPK signaling",+
same,fold change,"NFATC3, MAPK signaling",(1.22)
same,expression class,"NFKB, PI3K signaling",+
same,fold change,"NFKB, PI3K signaling",(1.02)
same,expression class,"NFKB, PLC gamma signaling",+
same,fold change,"NFKB, PLC gamma signaling",(1.02)
same,expression class,"P13KCA, PI3K signaling",+
same,fold change,"P13KCA, PI3K signaling",(1.47)
same,expression class,"PDPK1 (PDK1), PI3K signaling",unc.
same,fold change,"PDPK1 (PDK1), PI3K signaling",(0.95)
same,expression class,"PIK3R1, PI3K signaling",+
same,fold change,"PIK3R1, PI3K signaling",(0.98)
same,expression class,"PIK3R2, PI3K signaling",+
same,fold change,"PIK3R2, PI3K signaling",(1.17)
same,expression class,[2],+
same,fold change,[2],(1.18)
same,expression class,[3],+
same,fold change,[3],(0.94)
same,expression class,"PRKCA, PLC gamma signaling",+
same,fold change,"PRKCA, PLC gamma signaling",(1.10)
same,expression class,"RAP1A, MAPK signaling",+
same,fold change,"RAP1A, MAPK signaling",(1.14)
same,expression class,[4],+
same,fold change,[4],(1.07)
same,expression class,"RHOA, Rho signaling",+
same,fold change,"RHOA, Rho signaling",(1.08)
same,expression class,[5],+
same,fold change,[5],(0.97)
same,expression class,[6],+
same,fold change,[6],(0.97)
same,expression class,[7],+
same,fold change,[7],(0.97)
same,expression class,[8],+
same,fold change,[8],(1.00)
same,expression class,[9],+
same,fold change,[9],(1.00)
same,expression class,[10],+
same,fold change,[10],(1.00)
same,expression class,"SHC1, MAPK signaling",+
same,fold change,"SHC1, MAPK signaling",(0.94)
same,expression class,"SHC1, PI3K signaling",+
same,fold change,"SHC1, PI3K signaling",(0.94)
same,expression class,"SRC, JAK-STAT signaling",+
same,fold change,"SRC, JAK-STAT signaling",(1.18)
same,expression class,"STAT3, JAK-STAT signaling",+
same,fold change,"STAT3, JAK-STAT signaling",(1.06)
same,expression class,"STAT5, JAK-STAT signaling",+
same,fold change,"STAT5, JAK-STAT signaling",(1.06)
same,expression class,"TP53, MAPK signaling",+
same,fold change,"TP53, MAPK signaling",(0.96)
same,expression class,"TP53, PI3K signaling",+
same,fold change,"TP53, PI3K signaling",(0.96)
